According to patent publication US8765755B2, “N-containing heterocyclic compounds” (YM Biosciences Australia Pty Ltd, priority 2007, dated 2014):

What was measured:
BafT_J3 = test: Cellular screening, BaF3 TEL:JAK3 cells (Alamar Blue); assay type: cell-based; conditions: Mus musculus, 40 hr incubation
Description: (§1) For screening purposes, compounds were diluted in 96 well plates at a concentration of 20 μM. Plates were warmed at 37° C. for 30 minutes before the assay was performed.
(§2) The coding region encompassing nucleotides 1-487 of TEL was amplified by PCR using the oligonucleotides 5TEL (5′-GGAGGATCCTGATCTCTCTCGCTGTGAGAC-3′) [SEQ ID NO 14] and 3TEL (5′-AGGC GTCGACTTCTTCTTCATGGTTCTG-3′) [SEQ ID NO 15] and U937 mRNA as a template. A BamHI restriction site was incorporated into the 5TEL primer, and a Sal I restriction site was incorporated into the 3TEL primer. The regions encompassing the kinase domain of JAK2 (nucleotides 2994-3914; JAK2F 5′-ACGC GTCGACGGTGCCTTTGAAGACCGGGAT-3′ [SEQ ID NO 16]; JAK2R 5′-ATAGTTTAGCGGCCGCTCAGAATGAAGGTCATTT-3′) [SEQ ID NO 17] and JAK3 (nucleotides 2520-3469; JAK3F 5′-GAAGTCGACTATGCCTGCCAAGACCCCACGATCTT-3′) [SEQ ID NO 18] were generated by PCR using Taq DNA polymerase (Gibco/BRL) and U937 mRNA as a template. A Sal I restriction site was incorporated into the forward primer of JAK2 and JAK3, a Not I site was incorporated into the JAK2 reverse primer and a Xba I site was added to the reverse primer of JAK3.
The TEL/Jak3 fusion was prepared by ligation of the JAK3 Sal I/Not I cleaved kinase domain PCR product with the BamH I/Sal I restriction digested TEL product, followed by ligation of the ligation product into the BamH I/Not I digested pTRE2, to give the TEL/Jak3 fusion plasmid pTELJAK3.
(§3) The growth factor dependant myelomonocytic cell line BaF3 bearing the pTET-off plasmid (Clontech) was transfected with either pTELJAK2 or pTELJAK3, and the transfected cells were selected for growth-factor independent cell growth. The BaF3 wild-type cells were cultured in DMEM containing 10% FCS, 10% WEHI 3B conditioned medium. The BaF3 TELJAK cells ([…]) were cultured in DMEM 10% Tet-System Approved FBS (without WEHI 3B conditioned medium).
(§4) Cell suspensions were prepared by harvesting cells from culture. (the cells used in this test were in late log phase growth with high viability.) Cells were diluted in the appropriate growth medium, as described above, to 1.1× final concentration (from 50,000 cell/mL to 200,000 cell/mL, depending on cell line).
(§5) Compounds to be tested were added (10 μL, 10× final concentration) to a flat bottomed 96-well plate. The cellular suspension (90 μL per well) was then added, and the plate incubated for 40 hr at 37° C., 5% CO2. Alamar Blue 10 μL per well was added and the plates returned to the incubator for a further 4-6 hours. The plates were then read at 544 nm.

human JAK3 = target: T1, human JAK3 (Homo sapiens, UniProt P52333); test: JAK3 kinase enzyme assay (Alphascreen); assay type: biochemical; conditions: 80 or 625 um ATP
T1 construct: The kinase domain of human JAK3 was amplified; GST (N); made in house; host or cells: Sf9 (Spodoptera frugiperda) insect cells, baculovirus
T1 sequence (P52333 822-1111 limits assumed): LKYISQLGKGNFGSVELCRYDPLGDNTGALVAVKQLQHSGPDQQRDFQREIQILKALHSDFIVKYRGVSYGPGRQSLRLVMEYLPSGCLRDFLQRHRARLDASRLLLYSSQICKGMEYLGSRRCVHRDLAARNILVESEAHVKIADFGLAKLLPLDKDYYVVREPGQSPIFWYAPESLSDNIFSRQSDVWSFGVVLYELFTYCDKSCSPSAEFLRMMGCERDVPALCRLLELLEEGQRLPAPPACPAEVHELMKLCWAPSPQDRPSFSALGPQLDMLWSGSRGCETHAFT
Description: (§6) For screening purposes, compounds (in 100% DMSO) were warmed at 37 degrees for at least 20 minutes before use. A […] stock was initially made in assay buffer, where the final concentration of DMSO was 0.3%. The stocks were then diluted in 384 well Optiplates (Packard) where the final concentration of the compound was 5 μM.
The kinase domain of human JAK3 was amplified from U937mRNA using the polymerase chain reaction with the following primers: […]
The JAK3 PCR products were cloned into the pDest20 destination expression vector (Gibco). The JAK3 plasmid was then transformed into competent DH10Bac cells (Gibco), and the recombinant baculovirus was prepared via Sf9 insect cell transfection.
(§7) Baculovirus preparations from each of the JAK family members were infected into one litre of Sf9 (Spodoptera frugiperda) cells (Invitrogen) grown in SF900II serum free medium (Invitrogen) to a cell density of approximately 2×10^6 cells/ml. Cells were infected with virus at a cell culture to virus stock ratio of 20:1. Cells were harvested and lysed 48 hours post infection. The GST-tagged JAK kinase domains were purified by affinity chromatography on a GSH agarose column (Scientifix).
(§8) Kinase assays were performed in 384 well Optiplates (Packard) using an Alphascreen Protein Tyrosine KinaseP100 detection kit The compounds were pre-incubated with affinity purified PTK domain in the presence of phosphotyrosine assay buffer (10 mM HEPES, pH 7.5, 100 mM MgCl2, 25 mM NaCl, 200 mM sodium vanadate and 0.1% Tween 20) for 20 minutes. The compounds were then incubated with substrate in the presence of either 80 or 625 um ATP for 60 or 90 minutes. The substrate used was either susbtrate-1 with the sequence biotin-EGPWLEEEEEAYGWMDF-NH2 [SEQ. ID. NO. 13] (final concentration 111 μM) or susbtrate-2 substrate with the sequence biotin-EQEDEPEGDYFEWLEPE (final concentration 133 μM). Alphascreen phosphotyrosine acceptor beads followed by streptavidin donor beads at a concentration of 1/100 in stop buffer were added to each well under subdued light and incubated for 2-3 hours. The Alphascreen plates were read on a Packard Fusion Alpha instrument.

BafT_J2 = test: Cellular screening, BaF3 TEL:JAK2 cells (Alamar Blue); assay type: cell-based; conditions: Mus musculus, 40 hr incubation
Description: as §1, §2
A TEL/Jak2 fusion was generated by digestion of the TELPCR product with BamH I/Sal I restriction enzymes, digestion of the JAK2 PCR product with Sal I/Not I restriction enzymes, followed by ligation and subcloning of the ligation product into the mammalian expression Vector pTRE 2 (Clontech), which was prepared by digestion with BamH I-Not I restriction enzymes, to give the TEL/Jak2 fusion plasmid pTELJAK2.
as §3, §4, §5

BAF3wt = test: Cellular screening, BaF3 wild-type cells (Alamar Blue); assay type: cell-based; conditions: Mus musculus, 40 hr incubation
Description: as §1, §3, §4, §5

human JAK2 = target: T2, human JAK2 (Homo sapiens, UniProt O60674); test: JAK2 kinase enzyme assay (Alphascreen); assay type: biochemical; conditions: 80 or 625 um ATP
T2 construct: The kinase domain of human JAK2 was amplified; GST (N); made in house; host or cells: Sf9 (Spodoptera frugiperda) insect cells, baculovirus
T2 sequence (O60674 849-1124 limits assumed): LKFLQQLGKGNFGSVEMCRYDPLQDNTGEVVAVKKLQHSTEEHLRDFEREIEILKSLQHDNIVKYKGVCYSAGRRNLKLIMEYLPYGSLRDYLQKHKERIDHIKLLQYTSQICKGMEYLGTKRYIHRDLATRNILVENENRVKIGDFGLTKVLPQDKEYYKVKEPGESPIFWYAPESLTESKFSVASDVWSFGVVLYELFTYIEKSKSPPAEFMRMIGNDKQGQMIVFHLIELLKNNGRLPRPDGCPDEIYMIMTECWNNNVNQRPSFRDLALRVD
Description: as §6
The kinase domain of human JAK2 was amplified from U937mRNA using the polymerase chain reaction with the following primers: […]
The JAK2 PCR products were cloned into the pDest20 destination vector (Gibco). The JAK2 plasmid was then transformed into competent DH10Bac cells (Gibco), and the recombinant baculovirus was prepared via Sf9 insect cell transfection.
as §7, §8

CTLL2 = test: Cellular screening, CTLL2 cells (Alamar Blue); assay type: cell-based; conditions: Mus musculus, CTLL-2, 40 hr incubation
Description: as §1, §4, §5

Row | SMILES | IC50 (BafT_J3) [nM] | IC50 (human JAK3) [nM] | IC50 (BafT_J2) [nM] | IC50 (BAF3wt) [nM] | IC50 (human JAK2) [nM] | IC50 (CTLL2) [nM]
1 | Nc1ccc(-c2csc3cnc(Nc4ccc(N5CCOCC5)cc4)nc23)cc1 [Compound 2, 7-(4-aminophenyl)-N-(4-morpholinophenyl)thieno[3,2-d]pyrimidin-2-amine] | < 1000 | < 100 | < 1000 | < 1000 | < 100 | < 1000
2 | C=CC(=O)Nc1ccc(-c2csc3cnc(Nc4ccc(N5CCOCC5)cc4)nc23)cc1 [Compound 3, N-(4-(2-(4-morpholinophenylamino)thieno[3,2-d]pyrimidin-7-yl)phenyl)acrylamide] | < 1000 | < 100 | < 5000 | < 5000 | < 100 | < 1000
3 | Nc1cccc(-c2csc3cnc(Nc4ccc(N5CCOCC5)cc4)nc23)c1 [Compound 4, 7-(3-aminophenyl)-N-(4-morpholinophenyl)thieno[3,2-d]pyrimidin-2-amine] | < 1000 | < 100 | < 1000 | < 1000 | < 100 | < 1000
4 | C=CC(=O)Nc1cccc(-c2csc3cnc(Nc4ccc(N5CCOCC5)cc4)nc23)c1 [Compound 5, N-(3-(2-(4-morpholinophenylamino)thieno[3,2-d]pyrimidin-7-yl)phenyl)acrylamide] | < 1000 | < 100 | < 5000 | < 1000 | < 100 | < 1000
5 | COc1cc(-c2csc3cnc(Nc4ccc(N5CCOCC5)cc4)nc23)ccc1N [Compound 10, 7-(4-amino-3-methoxyphenyl)-N-(4-morpholinophenyl)thieno[3,2-d]pyrimidin-2-amine] | < 1000 | < 100 | < 1000 | < 1000 | < 100 | < 1000
6 | CCc1ccccc1-c1csc2cnc(Nc3cccc(N)c3)nc12 [Compound 22, N1-(7-(2-ethylphenyl)thieno[3,2-d]pyrimidin-2-yl)benzene-1,3-diamine] | < 5000 | < 100 | < 1000 | < 5000 | < 100 | < 1000
7 | CCc1ccccc1-c1csc2cnc(Nc3ccc(N4CCOCC4)cc3)nc12 [Compound 29, 7-(2-ethylphenyl)-N-(4-morpholinophenyl)thieno[3,2-d]pyrimidin-2-amine] | < 1000 | < 100 | < 1000 | < 1000 | < 100 | < 1000
8 | CC(=O)Nc1cccc(-c2csc3cnc(Nc4ccc(N5CCOCC5)cc4)nc23)c1 [Compound 30, N-(3-(2-(4-morpholinophenylamino)thieno[3,2-d]pyrimidin-7-yl)phenyl)acetamide] | < 1000 | < 100 | < 1000 | < 1000 | < 100 | < 5000
9 | CS(=O)(=O)N(CC#N)c1ccc(-c2csc3cnc(Nc4ccc(N5CCOCC5)cc4)nc23)cc1 [Compound 32, N-(cyanomethyl)-N-(4-(2-(4-morpholinophenylamino)thieno[3,2-d]pyrimidin-7-yl)phenyl)methanesulfonamide] | < 1000 | < 100 | < 1000 | < 5000 | < 100 | < 1000
10 | Cn1cc(-c2ccc(NS(C)(=O)=O)cc2)c2nc(Nc3ccc(N4CCOCC4)cc3)ncc21 [Compound 35, N-(4-(5-methyl-2-(4-morpholinophenylamino)-5H-pyrrolo[3,2-d]pyrimidin-7-yl)phenyl)methanesulfonamide] | < 20000 | < 1000 | < 5000 | < 5000 | < 100 | < 5000
11 | CC(C)c1ccccc1-c1csc2cnc(Nc3ccc(N4CCOCC4)cc3)nc12 [Compound 37, 7-(2-isopropylphenyl)-N-(4-morpholinophenyl)thieno[3,2-d]pyrimidin-2-amine] | < 1000 | < 100 | < 1000 | < 1000 | < 100 | < 1000
12 | Nc1ccc(-c2csc3cnc(Nc4ccc(N5CCOCC5)cc4)nc23)cc1[N+](=O)[O-] [Compound 44, 7-(4-amino-3-nitrophenyl)-N-(4-morpholinophenyl)thieno[3,2-d]pyrimidin-2-amine] | < 5000 | < 100 | < 1000 | < 5000 | < 100 | < 5000
13 | COc1ncccc1-c1csc2cnc(Nc3ccc(N4CCOCC4)cc3)nc12 [Compound 45, 7-(2-methoxypyridin-3-yl)-N-(4-morpholinophenyl)thieno[3,2-d]pyrimidin-2-amine] | < 1000 | < 100 | < 1000 | < 1000 | < 100 | < 1000
14 | COc1ccc(Nc2ncc3scc(-c4cccnc4OC)c3n2)cc1OC [Compound 52, N-(3,4-dimethoxyphenyl)-7-(2-methoxypyridin-3-yl)thieno[3,2-d]pyrimidin-2-amine] | < 1000 | < 100 | < 1000 | < 1000 | < 100 | < 1000
15 | COc1ccc(-c2csc3cnc(Nc4ccc(OC)c(OC)c4)nc23)c(OC)n1 [Compound 55, N-(3,4-dimethoxyphenyl)-7-(2,6-dimethoxypyridin-3-yl)thieno[3,2-d]pyrimidin-2-amine] | < 5000 | < 100 | < 5000 | < 5000 | < 100 | < 5000
